Measured values published in a melting point compilation (Tetko et al.; mined from patent text by program, amines drawn as free bases though some values may be those of a salt).

Row | SMILES | melting point
1 | CONC(=N)c1nc(Cl)c(-c2c(F)cc(F)cc2F)c(N2CCCO2)n1 | 192 to 193 °C
2 | CC(O)(CCCl)c1ccc(-c2ccc(Cl)cc2)cc1 (stereo not given) | 98 to 100 °C
3 | COc1cc(OC)nc(NC(=O)NS(=O)(=O)c2c(Cl)cccc2CN2CCOC2=O)n1 | 135 to 136 °C
4 | BrCc1c(Br)c(Br)c(CBr)c(Br)c1Br | 268 to 271 °C
5 | CC(=O)OCc1cccc2sc(-c3ccccc3)nc12 | 83 to 84 °C
6 | CC1Cc2cc(Cl)c(Cl)cc2C(c2ccc([N+](=O)[O-])cc2)O1 (stereo not given) | 189 to 191 °C
7 | CCOc1cc(-c2ccc(S(C)(=O)=O)cc2)c(-c2ccc(F)cc2)c(C(F)(F)F)n1 | 168 to 170 °C
8 | CCC(O)c1nc2c(C(F)(F)F)cccc2c(O)c1C(=O)Nc1nccs1 (stereo not given) | 180 °C
9 | O=C(CCc1cccc2[nH]ccc12)c1ccccc1OCCN1CCCCC1 | 78 °C
10 | Cc1c(Br)ccc(N)c1C#N | 111 to 113 °C
11 | Nc1nc(N)nc(-c2cnccn2)n1 | > 250 °C
12 | Cc1cc2nc(/C=C/c3ccccc3)n(-c3ccccn3)c2cc1C | 136 to 137 °C
13 | CC(=O)Nc1ccc(-c2ccc3nnn(Cc4ccc5ncccc5c4)c3n2)cc1 | 220 to 223 °C
14 | ON=C1CCN(CC2CCCO2)CC1 (stereo not given) | 104 to 106 °C
15 | Cc1cccc(N)c1[N+](=O)[O-] | 105 to 108 °C
16 | COc1ccc(CNc2cc(OC)c(Cl)cc2OC)cc1 | 53 to 63 °C
17 | CCOC(=O)C1=Cc2ccc(OCc3ccccc3)cc2OCC1 | 75 to 76 °C
18 | COc1ccc(N2CCN(c3c(C)c(C)c4c(c3C)C(N3CCCCC3)C(C)(C)O4)CC2)cc1 (stereo not given) | 146 to 148 °C
19 | Nc1cccc(-c2nc3n(n2)Cc2ccccc2-3)c1 | 163 to 164 °C
20 | CC1CCC(=NN(C)c2ccccc2)c2ncc(C(=O)O)c(=O)n21 (stereo not given) | 196 to 198 °C
21 | COc1c(C)oc2c(-n3c(=O)cc(C(F)(F)F)n(C)c3=O)c(F)cc(Cl)c12 | 57 to 60 °C

Row | SMILES | melting point
22 | COC(=O)Nc1cn2nc(OCc3cc(OC)ccc3OC)ccc2n1 | 228 to 230 °C
23 | O=C(COc1ccc(-c2cc3ccc(OCC(=O)c4ccc(Cl)cc4)cc3s2)cc1)c1ccc(Cl)cc1 | 210 °C
24 | Nc1nc(N)nc(N2CCSCC2)n1 | 237 to 239 °C
25 | COc1ccc(/C=N/N2C=COC=C2)cc1OC1CCCC1 | 108 to 109 °C
26 | COc1ccc(-c2ccc3nnn(Cc4ccc5ncccc5c4)c3n2)cc1F | 187 to 190 °C
27 | CCCc1c(OCCCOc2cccc3c2CCCC3)ccc2c1OC(CCCC=O)(CCCC=O)CC2=O | 72 to 73 °C
28 | Cc1nc2cc(CN3CCN(C(c4ccccc4)c4ccccc4)CC3)ccc2n1C | 206 °C
29 | Cc1oc(-c2ccccc2)nc1COc1ccc2cc(CC3OC(=O)NC3=O)oc2c1 (stereo not given) | 172 to 173 °C
30 | N#CC=Cc1ccc(N)cc1 | 109 to 110 °C
31 | FC(F)(F)c1ccc(C=Nc2c3c(nc4ccccc24)CCCC3)cc1 | 203 to 205 °C
32 | COc1ccc(-c2oc3ccc(F)cc3c(=O)c2OCCOc2cccc(C(C)=C3SC(=O)NC3=O)c2)cc1OC | 228 to 230 °C
33 | Cc1ccc(CC2(O)CCN(CC(=O)Nc3ccc(O[Si](C)(C)C(C)(C)C)cc3)CC2)cc1 | 136 to 138 °C
34 | COc1ccc(C(=O)O)c(OCc2cccc(OCc3ccc4ccccc4n3)c2)c1 | 117 to 118 °C
35 | CCCCCCCCOc1ccc(-n2nc3ccc(C(F)(F)F)cc3n2)c(O)c1 | 79 to 81 °C
36 | CC(=O)Nc1cccc(C=CC(=O)C2C(=O)OC(=O)C(C(C)=O)=C2O)c1 (stereo not given) | 222 to 224 °C
37 | CCCCOc1cc(C2(C)CNC(=O)O2)ccc1OC (stereo not given) | 108 to 109 °C
38 | COc1ccc(C(Sc2cc(Oc3ccc(Cl)cc3)ccc2N)C(O)C(=O)O)cc1 (stereo not given) | 179 to 181 °C
39 | O=C(O)c1cccnc1-c1ccc2[nH]nc(Nc3nccs3)c2c1 | 267 to 268 °C
40 | CCCc1cc(C(O)(CC)CC)ccc1-c1cc(OCc2ccc(CO)c(CO)c2)ccc1C | 97 °C
41 | COc1c(C)c(N2CCN(c3ccc(C(F)(F)F)cc3)CC2)c(C)c2c1OC(C)(C)C2 | 186 to 187 °C
42 | O=C1N(Cc2cccnc2C(F)(F)F)c2ccccc2C12COc1cc3c(cc12)OCCO3 (stereo not given) | 219 to 220 °C

Row | SMILES | melting point
43 | CCOC(=O)c1nn(Cc2ccc(Cl)c(Cl)c2)c(-c2ccc(Cl)cc2)c1C | 118 °C
44 | CC1(c2ccccc2)Cc2cc(CC(=O)O)c(Cl)c(Cl)c2C1=O (stereo not given) | 133 to 135 °C
45 | COc1cc2c(c3c1OC(C)(C)C3)C(c1cccc(NC(=O)C(C)(C)CCl)c1)=NC(C)(C)C2 | 189 to 191 °C
46 | NC(=O)c1cc2c(Sc3ccccn3)cncc2s1 | 239 to 242 °C
47 | Fc1cccc(Cl)c1C1C=C(c2ccc(Cl)cc2)Nc2ncnn21 (stereo not given) | 213 to 215 °C
48 | CN1CCC(C2=Nc3ccccc3N(C)c3ccccc32)CC1 | 119 to 121 °C
49 | CS(=O)(=O)N1CCC(c2nc3cc(-c4ccc(-n5cnnn5)cc4F)ccc3o2)CC1 | 209 to 212 °C
50 | COCCO[C@@H]1c2ccc3c(nc(C)n3C3CC3)c2O[C@H](c2ccccc2)[C@H]1O | 183 °C
51 | COc1c(Cl)cc(F)c(-n2ncc(C(F)(F)F)cc2=O)c1N | 156 to 157 °C
52 | CC(=O)Oc1cnccc1CCCOc1cccnc1Oc1cccc(Cl)c1 | 107 to 126 °C
53 | CCN(CC)Cc1ccc(CN2C(=O)COc3ccc(C=C4SC(=O)NC4=O)cc32)cc1 | 244 to 246 °C
54 | COC1=C(C)C(=O)C(OC)=C(CCCCCC2=C(OC)C(=O)C(C)=C(OC)C2=O)C1=O | 84 to 86 °C
55 | Cc1c(N2CCN(Cc3ccccc3)C(C)C2)c(F)cc2c(=O)c(C(=O)O)cn(C3CC3)c12 (stereo not given) | 170 to 171 °C
56 | COc1cc2c(cc1Nc1ncc(Cl)c(Nc3ccccc3S(=O)(=O)N(C)C)n1)CCN(CCCN1CCOCC1)C(=O)C2 | 78 to 87 °C
57 | CCOc1cc(=O)[nH]c2ccccc12 | 223 to 226 °C
58 | CN1CCCC1CC(O)c1cccc(O)c1 (stereo not given) | 147 to 150 °C
59 | OC[C@@H](O)CCOc1ccc(-c2nc3c4ccccc4c4ccccc4c3[nH]2)cc1 | 263 to 265 °C
60 | O=C(O)c1cc2cc(Cl)ccc2nn1 | 207 to 208 °C
61 | CN1CCC2(CC1)C(=O)N(C)c1ccc(Cl)cc1C(c1ccccc1)N2C (stereo not given) | 80 to 85 °C
62 | CN1CCN(c2ccc([N+](=O)[O-])cn2)CC1 | 75 to 76 °C
63 | Fc1ccc2[nH]cc(Cc3cccnc3)c2c1 | 109 to 112 °C

Now from value to compound:

Row | melting point | SMILES
64 | 165 to 166 °C | CSC(=NC(=O)OCc1ccccc1)NNC(=O)NC(=O)OCc1ccccc1
65 | 149 to 153 °C | Cc1cncn1CC#CCn1ccn(C)c1=O
66 | 125 to 129 °C | N#CCc1ccc(CC(=O)O)c(S(N)(=O)=O)c1
67 | 167 to 171 °C | CCOC(=O)c1cc(NC(=O)c2ccc(C)cc2)ccc1N
68 | 55 to 56 °C | C=CCONC(CCC)=C1C(=O)CC(C2CCOCC2)CC1=O (stereo not given)
69 | 94 to 95 °C | COCCOc1ccc(CCCNS(=O)(=O)c2ccccc2)c(Oc2ncc(C(F)(F)F)cc2Cl)c1
70 | 173 to 175 °C | N=C(NS(=O)(=O)C=Cc1ccc([N+](=O)[O-])cc1)c1ccccc1
71 | 132 to 133 °C | CC(C)CNCc1cc2cc(NC(=O)c3ccc(OC[C@@H]4CCCO4)cc3)ccc2n1C
72 | 224 to 226 °C | Cn1cc(C(=O)NCCC2CCN(S(=O)(=O)NC(=O)NC34CC5CC(CC(C5)C3)C4)CC2)c(=O)n(C)c1=O
73 | 179 to 181 °C | Cc1cc(CC(=O)NCc2cccc3c2C(=O)N(C2CCC(=O)NC2=O)C3=O)on1 (stereo not given)
74 | 99 to 101 °C | CC(C)C[C@H](NC(=O)CCSC(=O)c1ccccc1)C(=O)O
75 | 137 to 139 °C | CCOC(=O)c1oc2c(C(=O)c3ccccc3)ccc(OC)c2c1C
76 | 128 °C | CCC1(COc2ccc(C=CC(=O)O)cc2)COC1
77 | 177 °C | CC(C#Cc1ccc(C=Cc2ccc(F)cc2)o1)N(O)C(N)=O (stereo not given)
78 | 145 °C | CC(CCNC(=O)CC#N)NC(=O)CC#N (stereo not given)
79 | 250 to 252 °C | CCCCc1cc2c(=O)n3cc(C(=O)O)ccc3nc2s1
80 | 98 to 100 °C | CCOc1ccccc1OCCNC(=O)CCC(=O)c1ccc(F)cc1
81 | 248 to 255 °C | CCn1nc(-c2cnc3[nH]cc(C(=O)N[C@H](C)C(=O)N4CC(C#N)C4)c3n2)c2ccc(Cl)cc21
82 | 221 to 223 °C | CCOC(=O)c1cnc(Nc2cc(OC)ccc2OC)[nH]c1=O

Row | melting point | SMILES
83 | 251 to 253 °C | CCOC(=O)c1cn(N)c2cc3c(cc2c1=O)OCO3
84 | 221 to 225 °C | NC(=O)CC(CC(N)=O)c1c(Cl)cccc1Cl
85 | 193 to 195 °C | CCOC(=O)c1cnc2n(c1=O)c1ccccc1c1ncc(C(=O)OCC)c(=O)n12
86 | 88 to 92 °C | CCCc1c(C#CCCCCOc2ccccc2CCC(=O)O)ccc2c1OCCC2=O
87 | 116 to 117 °C | CCCCS(=O)CCCNc1cc2oc(=O)[nH]c2cc1F (stereo not given)
88 | 115 to 117 °C | CCCN(CCC)C(=O)CNc1nc(-c2ccccc2)nc(C(F)(F)F)c1Cl
89 | 177 to 178 °C | CCCNC(=O)Nc1c(C)c(C)c2c(c1C)C(c1ccc(C(C)C)cc1)CO2 (stereo not given)
90 | 125 to 128 °C | CC(C#N)NNC(N)=O (stereo not given)
91 | 83 to 85 °C | N#Cc1cc(Br)c(OC(=O)OCCl)c(Br)c1
92 | 115 to 117 °C | CC(C)(C)NC(=O)OC1CCN(c2cccc(C(F)(F)F)c2)C1=O (stereo not given)
93 | 132 to 134 °C | CC(C)(C)OC(=O)C1CCCNN1C(=O)C(CCC(=O)O)N1C(=O)c2ccccc2C1=O (stereo not given)
94 | 130 to 131 °C | CCOC(=O)C(C(=O)c1ccc(OC)cc1)N(N)c1ccccn1 (stereo not given)
95 | 107 to 109 °C | COC(=O)c1nc(NCC(O)CO)cnc1[N+](=O)[O-] (stereo not given)
96 | 192 °C | O=C(NC(=O)c1c(F)cccc1F)Nc1cc(C(F)(F)F)c(F)cc1Cl
97 | 247 to 251 °C | CC(C)(C)C(=O)CN1C(=O)C(NC(=O)Nc2ccccc2)CN(C2CCCCC2)c2ccccc21 (stereo not given)
98 | 203 to 205 °C | CCCc1c(COc2ccc(-c3nnn[nH]3)cc2)ccc(C(C)=O)c1O
99 | 82 °C | CCCCN(CCCC)C(=O)Nc1ccccc1
100 | 134 to 141 °C | Cc1cc(C(=O)NC2CCCCC2)ccc1[N+](=O)[O-]
